From ChEMBL document CHEMBL1127920, “Synthesis and biological activity of 14-hydroxydocetaxel” (Bioorg Med Chem Lett, 1994)

Legend:
Assay type in all cases: functional, cell-based
A549 = experiment: Cytotoxicity was evaluated in vitro against A549 (non-small cell lung carcinoma) human tumor cell lines
A121 = experiment: Cytotoxicity was evaluated in vitro against A121 (ovarian carcinoma) human tumor cell lines
MCF7 = experiment: Cytotoxicity was evaluated in vitro against MCF-7 (mammary carcinoma) human tumor cell lines
HT-29 = experiment: Cytotoxicity was evaluated in vitro against HT-29 (colon carcinoma) human tumor cell lines

Row | SMILES | IC50 (A549) | IC50 (A121) | IC50 (MCF7) | IC50 (HT-29)
1 | CC(=O)O[C@@]12CO[C@@H]1C[C@H](O)[C@@]1(C)C(=O)[C@H](O)C3=C(C)[C@@H](OC(=O)[C@H](O)[C@@H](NC(=O)OC(C)(C)C)c4ccccc4)[C@@H]4OC(C)(C)O[C@]4([C@@H](OC(=O)c4ccccc4)C12)C3(C)C (some centres not stated) | 18 nM | 46 nM | 34 nM | 21 nM
2 | CC(=O)O[C@@]12CO[C@@H]1C[C@H](O)[C@@]1(C)C(=O)[C@H](O)C3=C(C)[C@@H](OC(=O)[C@H](O)[C@@H](NC(=O)OC(C)(C)C)c4ccccc4)[C@H](O)[C@@](O)([C@@H](OC(=O)c4ccccc4)C12)C3(C)C (some centres not stated) | 0.8 nM | 3.3 nM | 1.9 nM | 2.1 nM
3 | CC(=O)O[C@@]12CO[C@@H]1C[C@H](O)[C@@]1(C)C(=O)[C@H](O)C3=C(C)[C@@H](OC(=O)[C@H](O)[C@@H](NC(=O)OC(C)(C)C)c4ccccc4)C[C@@](O)([C@@H](OC(=O)c4ccccc4)[C@H]21)C3(C)C [DOCETAXEL] | 1 nM | 1.2 nM | 1 nM | 1.2 nM
